Source: article PMC11785791, “Cryo-EM structure of the calcium-sensing receptor complexed with the kokumi substance γ-glutamyl-valyl-glycine” (Scientific Reports, 2025)
*1 amine or outer side, *2 acyl side, *3 side chain or, on linkers, in order; H or OH if unused. Where a SMILES comes first, the peptide text is derived from it. γGlu = O=C(O)[CH](CCC(=O)[*:2])N[*:1]

How the values were obtained:
human CaSR R66A mutant = molecular target: T1, human CaSR R66A mutant (Homo sapiens, UniProt P41180, R66A); assay: Calcium mobilization assay, CaSR R66A mutant; format: cell-based; conditions: for Response in calcium mobilization assay: in words; for EC50: mean ± s.e.m., n = 3
T1 construct: (N); expressed in transfected cells; host or cells: PEAKrapid cells (ATCC), pcDNA 3.1, transient transfection
T1 sequence (P41180 20-1078 R66A): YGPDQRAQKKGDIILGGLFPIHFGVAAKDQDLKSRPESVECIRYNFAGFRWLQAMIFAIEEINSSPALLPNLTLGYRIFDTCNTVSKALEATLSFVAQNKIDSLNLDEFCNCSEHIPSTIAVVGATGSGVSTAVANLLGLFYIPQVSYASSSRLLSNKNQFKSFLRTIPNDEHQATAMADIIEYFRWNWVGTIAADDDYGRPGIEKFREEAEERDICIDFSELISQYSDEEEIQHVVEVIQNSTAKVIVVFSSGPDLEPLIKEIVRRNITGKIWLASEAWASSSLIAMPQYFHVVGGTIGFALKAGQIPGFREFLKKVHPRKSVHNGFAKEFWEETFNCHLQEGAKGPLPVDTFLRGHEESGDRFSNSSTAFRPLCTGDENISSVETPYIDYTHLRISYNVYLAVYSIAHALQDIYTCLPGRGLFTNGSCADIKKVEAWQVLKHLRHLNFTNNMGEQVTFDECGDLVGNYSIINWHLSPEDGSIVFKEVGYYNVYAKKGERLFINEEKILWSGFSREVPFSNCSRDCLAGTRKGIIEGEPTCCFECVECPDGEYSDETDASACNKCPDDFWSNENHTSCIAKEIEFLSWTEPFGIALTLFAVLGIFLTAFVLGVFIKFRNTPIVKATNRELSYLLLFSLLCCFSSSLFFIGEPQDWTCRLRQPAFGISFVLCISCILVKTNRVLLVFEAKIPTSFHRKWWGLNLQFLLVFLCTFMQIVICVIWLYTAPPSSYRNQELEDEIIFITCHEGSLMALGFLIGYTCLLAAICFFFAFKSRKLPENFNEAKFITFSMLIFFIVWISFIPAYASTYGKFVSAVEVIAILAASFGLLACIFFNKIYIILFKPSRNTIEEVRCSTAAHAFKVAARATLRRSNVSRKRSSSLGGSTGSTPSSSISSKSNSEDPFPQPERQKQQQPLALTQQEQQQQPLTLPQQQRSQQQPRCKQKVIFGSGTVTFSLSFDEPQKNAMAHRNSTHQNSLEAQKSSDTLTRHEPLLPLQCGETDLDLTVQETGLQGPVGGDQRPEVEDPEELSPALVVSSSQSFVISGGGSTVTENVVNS
Protocol: The CaSR receptor responsiveness was assessed by using PEAK^rapid cells (ATCC, Manassas, VA, USA) transiently transfected with the receptor DNA by the method reported by Kitajima et al.[6]. Briefly, human CaSR or its mutant cDNA with a signal sequence (MAFYSCCWVLLALTWHTSA) followed by FLAG-tag (DYKDDDDK) were inserted into pcDNA 3.1 expression vectors in Opti-MEM I medium (Thermo Fisher Scientific), mixed with FuGENE 6 (Roche), and poured onto PEAK^rapid cells grown at a submaximal concentration. After culturing for 24 h in 96-well plates, the cells were incubated with 5 µM Calcium-5 solution (Calcium-5 assay kit, Molecular Devices) for 45–60 min, and measurements were performed using a plate reader (FDSS/µCELL, Hamamatsu Photonics, Shizuoka, Japan) and its associated software. The activation of CaSR expressed in cells increases the intracellular Ca^2+ concentration, which is measured using a Ca^2+-sensitive dye. The binding of Ca^2+ to the Ca^2+-sensitive dye increases dye fluorescence, with excitation at 485 nm and emission at 525 nm. Test compounds were dissolved and administered in the assay buffer (146 mM NaCl, 1 mM MgSO4, 20 mM HEPES, 1 mM CaCl2, 2.5 mM probenecid, and 1.39 mM glucose, pH 7.4). Transiently transfected cells were challenged with compounds and compared with the vehicle alone and/or mock-transfected cells. The concentration dependence of the fluorescence intensity (influx of Ca^2+) was analyzed using the plate reader at 1 s intervals for 180 s. For the dose–response curve calculations, peak fluorescence responses after the addition of compounds were corrected for, normalized to the background fluorescence (ΔF/F = –F − F0)/F0), and baseline noise was subtracted. Dose–response curves were calculated by non-linear regression using GraphPad PRISM 8.0.

CaSR = system: CaSR; parameters: method as in PMID 19892707, PMID 27477658; conditions: screening of dipeptides and tripeptides, previous work; cited from earlier work

With `N[C@@H](Cc1ccc(O)cc1)C(=O)O` [L-Tyr, L-tyrosine] the “Response in calcium mobilization assay” value (human CaSR R66A mutant; R66A mutant) was “no response”.

With `CC(C)C(NC(=O)CCC(N)C(=O)O)C(=O)NCC(=O)O` (stereo not drawn) [γ-EVG, γ-glutamyl-valyl-glycine] (γGlu-Val-Gly-OH; configuration not given here) the “Response in calcium mobilization assay” value (human CaSR R66A mutant; R66A mutant) was “reduced its function compared to the wild-type”, the EC50 (human CaSR R66A mutant; R66A mutant, ND not detected) was 18.9 ± 0.5 µM and the Emax (human CaSR R66A mutant; read-out: Emax (% of wild-type values)) was 53.6%. For the same compound, the CaSR activation potency (CaSR) was “most potent activity among those tested”.

With `[Ca+2].[Cl-].[Cl-]` [CaCl2] the “Emax (% of wild-type values)” value (human CaSR R66A mutant; R66A mutant) was 107.2 % of WT and the EC50 (human CaSR R66A mutant; R66A mutant) was 3870 ± 500 µM.

In the case of `CC(C)[C@H](NC(=O)CC[C@H](N)C(=O)O)C(=O)O` [γ-EV, γ-glutamyl-valine], the “Response in calcium mobilization assay” value (human CaSR R66A mutant; R66A mutant) is reported as “no response”.
